Patent publication US6214860A, “Synergistic antitumor composition containing a naphthalensulphonic acid derivative” (Pharmacia & Upjohn S.p.A., priority 1997, dated 2001)

Assays:
[1] = tested on: M5076 murine reticulosarcoma cells; test: In vivo antitumor activity in mice implanted with M5076 tumor cells; design: species or system Mice C57BL/6; details: VP-16 15 mg/kg iv, days 1, 4, 7 and 11, combination: + PNU 145156E 100 mg/kg ip 2 h prior
Protocol: (§1) The combinations were assayed in vitro on M5076 murine reticulosarcoma cells and in vivo on the same tumor cells implanted intramuscularly.
The antitumor activity was calculated in terms of:
% AUC: inhibition of tumor growth
T/C %: percentage of median increase in survival time
The A.U.C. (area under the curve) of the tumor growth was calculated by using the trapezoidal method, and is referred to the measurement of tumor growth performed one week after the last treatment. The percentage of inhibition (% A.U.C.) was calculated using the following formula: [formula]
The percentage of increase in survival time (T/C% ) was calculated using the following formula: [formula]
Mice were monitored according to guidelines and sacrificed when tumor weight exceeded 10% body weight. Tumor growth delay (TGD) is the time, in days, to reach one gram of tumor weight in treated animals as compared to control animals.
Evaluation of statistical significance was performed as follows: Student's Test for cytotoxic activity, Two-Way Anova for increase in survival time (T/C %) with combined treatment in comparison to the increase exerted separately by the two drugs, Tukey Test for tumor weight reduction (AUC % inhibition) with combined treatment in comparison to the reduction exerted separately by the two drugs.
The criterion for statistical significance was the 0.01 level ( )

[2] = VP-16 15 mg/kg iv, days 1, 4, 7 and 11; combination: + PNU 145156E 100 mg/kg ip 2 h prior
Protocol: Mice C57BL/6 were implanted with M5076 murine reticulosarcoma cells. PNU 145156E was administered ip 2 h prior to cytotoxic drugs administered iv starting treatment 24 h after tumor implant. Treatments were performed at days 1, 4, 7 and 11.
The toxicological evaluation was performed in terms of body weight loss and spleen and liver reduction.

[3] = tested on: M5076 murine reticulosarcoma cells; test: In vitro antiproliferative activity (% cell growth vs untreated control); format: cell-based
Protocol: as §1

## COc1cc([C@@H]2c3cc4c(cc3[C@@H](O[C@@H]3O[C@@H]5CO[C@@H](C)O[C@H]5[C@H](O)[C@H]3O)[C@H]3COC(=O)[C@H]23)OCO4)cc(OC)c1O [VP-16, etoposide]
[1]
  T/C % (median increase in survival time): 130%
  Tumor weight: 2.86 ± 0.8 gr
[1]; one week after last treatment
  A.U.C. % inhib. (inhibition of tumor growth): 90%
[1]; time to reach one gram
  TGD (tumor growth delay): 12 days
[2]
  Toxic/total mice: 0/9
[3]; Mus musculus, M5076, cytotoxic 4 ng/ml, PNU 145156E 0 ng/ml, 72 h, 37° C., read-out: % cell growth ± S.E.
  activity at 0.004 µg/mL: 96 ± 8%
[3]; Mus musculus, M5076, cytotoxic 20 ng/ml, PNU 145156E 0 ng/ml, 72 h, 37° C., read-out: % cell growth ± S.E.
  activity at 0.02 µg/mL: 77 ± 5%
[3]; Mus musculus, M5076, cytotoxic 100 ng/ml, PNU 145156E 0 ng/ml, 72 h, 37° C., read-out: % cell growth ± S.E.
  activity at 0.1 µg/mL: 15 ± 7%
[3]; cytotoxic 4 ng/ml + PNU 145156E 50000 ng/ml, 72 h, 37° C.
  % cell growth ± S.E.: 91 ± 2%
[3]; cytotoxic 20 ng/ml + PNU 145156E 50000 ng/ml, 72 h, 37° C.
  % cell growth ± S.E.: 66 ± 8%
[3]; cytotoxic 100 ng/ml + PNU 145156E 50000 ng/ml, 72 h, 37° C.
  % cell growth ± S.E.: 9 ± 4%
[3]; in words, PNU 145156E 50000 ng/ml vs 0 ng/ml
  antiproliferative activity in the presence of PNU 145156E: unchanged in the presence of PNU 145156E
